We go through eight compounds from patent US10537580B2, “Azocane and azonane derivatives and methods of treating hepatitis B infections” (Novira Therapeutics, Inc., priority 2015, dated 2020).

For assay [1], the target named is mutant C150 HBV capsid protein (C150Bo) (Hepatitis B virus genotype D subtype adw, UniProt P03147, C107A/C48A/C61A/R150C). The assay is described as follows: HBV assembly assay (fluorescence quenching in vitro capsid assembly). Format: biochemical. The note with it: at about 10 μM; 50 mM Hepes pH 7.5, 150 mM NaCl, 1 hour at room temperature.
Assay [2] deals with HBV replication in HepG2-2.2.15 cells. The assay is described as follows: Inhibition of HBV replication dot-blot assay. The note with it: at 10 μM, six days, reduction in HBV DNA levels. Type of assay: cell-based. The protocol:
Compounds active in the HBV assembly assay are tested for their activity and toxicity in cellular assay. In the first anti-viral assay, the ability of compounds to inhibit HBV replication in an HBV-producing hepatoma cell line using the dot-blot method is evaluated.
Briefly, confluent monolayers of HepG2-2.2.15 cells are incubated with complete medium containing various concentrations of a test compound. Three days later, the culture medium is replaced with fresh medium containing the appropriately diluted test compound. Six days following the initial administration of the test compound, the cell culture supernatant is collected, and cell lysis is performed. The samples are applied onto Nylos membranes and DNA is immobilized to the membrane by UV cross-linking. After pre-hybridization, the HBV probe is added and the hybridization is performed overnight. The membranes are exposed to the Kodak films; antiviral activity is calculated from the reduction in HBV DNA levels (EC50). The EC50 for antiviral activity is calculated from the dose response curves of active compounds. Assay performance over time is monitored by the use of the standard positive control compounds ETV, BAY 41-4109, and HAP-1.
Selected compounds were tested for their activity and toxicity in cellular assay. In the first anti-viral assay, the ability of compounds to inhibit HBV replication in an HBV-producing hepatoma cell line using the dot-blot method was evaluated.
Confluent monolayers of HepG2-2.2.15 cells were incubated with complete medium containing various concentrations of a test compound. Three days later, the culture medium was replaced with fresh medium containing the appropriately diluted test compound. Six days following the initial administration of the test compound, the cell culture supernatant was collected, and cell lysis was performed. The samples were applied onto Nylos membranes and DNA was immobilized to the membrane by UV cross-linking. After pre-hybridization, the HBV probe was added and the hybridization was performed overnight. The membranes were exposed to the Kodak films; antiviral activity was calculated from the reduction in HBV DNA levels (EC50). The EC50 for antiviral activity was calculated from the dose response curves of active compounds. Assay performance over time was monitored by the use of the standard positive control compounds ETV, BAY 41-4109, and HAP-1.

Chain of mutant C150 HBV capsid protein (C150Bo) (P03147 whole entry C107A/C48A/C61A/R150C, looked up): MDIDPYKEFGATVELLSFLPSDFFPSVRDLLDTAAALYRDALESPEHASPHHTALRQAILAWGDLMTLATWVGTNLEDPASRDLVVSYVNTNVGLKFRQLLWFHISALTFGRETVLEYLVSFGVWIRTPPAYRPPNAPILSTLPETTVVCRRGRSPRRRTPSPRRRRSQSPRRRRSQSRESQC

With `O=C(Nc1ccc(F)c(Cl)c1)c1ccc(F)c(S(=O)(=O)N2CCOCCC(O)C2)c1` (stereo not shown) [Compound 2039], in assay [1], the “Activity (HBV assembly assay)” value was “+ (‘+’ indicates >50% activity at about 10 μM)”. For the same compound, the Activity in dot-blot-assay entry in assay [2] is reported as “+ (‘+’ indicates >50% activity at 10 μM)”.

For `O=C(Nc1ccc(F)c(Cl)c1)c1ccc(F)c(S(=O)(=O)N2CCOCC(O)CC2)c1` (stereo not shown) [Compound 2040_E1], the “Activity (HBV assembly assay)” value in assay [1] is on record as “+ (‘+’ indicates >50% activity at about 10 μM)”. Moreover, the Activity in dot-blot-assay result in assay [2] is “+ (‘+’ indicates >50% activity at 10 μM)”.

For `O=C(Nc1ccc(F)c(Cl)c1)c1ccc(F)c(S(=O)(=O)N2CCOCC(O)CC2)c1` (stereo not shown) [Compound 2040_E2], the “Activity (HBV assembly assay)” value in assay [1] is “+ (‘+’ indicates >50% activity at about 10 μM)”. Further, in assay [2], the Activity in dot-blot-assay entry is on record as “+ (‘+’ indicates >50% activity at 10 μM)”.

On to `O=C(Nc1ccc(F)c(Cl)c1)c1ccc(F)c(S(=O)(=O)N2CCCCC(O)C(F)C2)c1` (stereo not shown) [Compound 2285_D1], for which the “Activity (HBV assembly assay)” value in assay [1] is reported as “+ (‘+’ indicates >50% activity at about 10 μM)”. Further, in assay [2], the Activity in dot-blot-assay entry is “+ (‘+’ indicates >50% activity at 10 μM)”.

As for `O=C(Nc1ccc(F)c(Cl)c1)c1ccc(F)c(S(=O)(=O)N2CCCCC(O)C(F)C2)c1` (stereo not shown) [Compound 2285_D2], the “Activity (HBV assembly assay)” value in assay [1] was “+ (‘+’ indicates >50% activity at about 10 μM)”. Besides, the Activity in dot-blot-assay entry in assay [2] is reported as “+ (‘+’ indicates >50% activity at 10 μM)”.

For the compound `O=C(Nc1cc(F)c(F)c(F)c1)c1ccc(F)c(S(=O)(=O)N2CCCCCCCC2)c1` [Compound 2435], in assay [1], the “Activity (HBV assembly assay)” value is on record as “+ (‘+’ indicates >50% activity at about 10 μM)”. The Activity in dot-blot-assay entry in assay [2] is on record as “+ (‘+’ indicates >50% activity at 10 μM)”.

In the case of `O=C(Nc1ccc(F)c(Cl)c1)c1ccc(F)c(S(=O)(=O)N2CCCCCCCC2)c1` [Compound 2436], the “Activity (HBV assembly assay)” value in assay [1] is “+ (‘+’ indicates >50% activity at about 10 μM)”. Further, in assay [2], the Activity in dot-blot-assay result is on record as “+ (‘+’ indicates >50% activity at 10 μM)”.

With `O=C(Nc1cc(F)c(F)c(F)c1)c1ccc(F)c(S(=O)(=O)N2CCOCC(O)CC2)c1` (stereo not shown) [Compound 2520], the “Activity (HBV assembly assay)” value in assay [1] is “+ (‘+’ indicates >50% activity at about 10 μM)”. In addition, in assay [2], the Activity in dot-blot-assay entry is listed as “+ (‘+’ indicates >50% activity at 10 μM)”.
